One experiment deals with T1, TLR4 (Mus musculus, UniProt Q9QUK6).
T1 construct: endogenous in cells; host or cells: RAW264.7 (murine macrophage cell line)
T1 sequence (Q9QUK6 26-835): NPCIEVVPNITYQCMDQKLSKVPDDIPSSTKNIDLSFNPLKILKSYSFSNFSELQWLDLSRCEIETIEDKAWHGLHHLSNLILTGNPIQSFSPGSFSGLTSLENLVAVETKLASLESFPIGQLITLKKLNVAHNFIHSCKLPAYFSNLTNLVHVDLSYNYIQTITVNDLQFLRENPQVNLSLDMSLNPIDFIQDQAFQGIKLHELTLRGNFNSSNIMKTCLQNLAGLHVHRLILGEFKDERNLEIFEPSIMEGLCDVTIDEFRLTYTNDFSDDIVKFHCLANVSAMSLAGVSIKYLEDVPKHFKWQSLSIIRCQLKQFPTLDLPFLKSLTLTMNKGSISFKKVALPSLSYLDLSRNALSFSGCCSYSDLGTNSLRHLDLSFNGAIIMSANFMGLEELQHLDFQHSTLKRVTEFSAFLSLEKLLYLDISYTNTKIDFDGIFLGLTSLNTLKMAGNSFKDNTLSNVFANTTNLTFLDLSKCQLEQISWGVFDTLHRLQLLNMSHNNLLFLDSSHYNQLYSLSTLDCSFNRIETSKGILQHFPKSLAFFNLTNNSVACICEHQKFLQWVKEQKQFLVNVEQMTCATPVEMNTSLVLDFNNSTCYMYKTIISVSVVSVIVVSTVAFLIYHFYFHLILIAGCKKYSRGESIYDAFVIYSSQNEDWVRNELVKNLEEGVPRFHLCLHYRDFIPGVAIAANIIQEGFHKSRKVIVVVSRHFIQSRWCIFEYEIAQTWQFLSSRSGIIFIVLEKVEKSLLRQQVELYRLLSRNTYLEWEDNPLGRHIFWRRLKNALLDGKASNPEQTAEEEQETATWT
T1 sequence (Q9JHF9 19-160 partner): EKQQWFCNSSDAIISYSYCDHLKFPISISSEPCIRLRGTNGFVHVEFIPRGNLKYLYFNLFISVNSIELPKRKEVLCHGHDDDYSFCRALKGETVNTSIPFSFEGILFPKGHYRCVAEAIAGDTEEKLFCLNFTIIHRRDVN
Nature of the experiment: Inhibitory effect with respect to NO production (LPS/interferon γ-stimulated RAW264.7). The settings on record: RAW264.7 cells, LPS 1.25 ng/mL and mouse interferon γ 0.2 ng/mL, nitrite ion in culture supernatant. The experiment is classed as cell-based, murine. Here is the method:
The inhibitory effect on TLR4 was determined using the inhibition rate due to the test compound with respect to NO production as a result of addition of lipopolysaccharide (LPS) using murine macrophage cell line RAW264.7. The cells were adjusted to 2×10^6 cells/mL using RPM1-1640 culture medium (phenol red free) supplemented with 10% inactivated bovine fetal serum, and were plated on 384 well plate so as to contain 6×10^4 cells/30 μL per well. Thereafter the cells were cultured at 37° C. overnight under 5% CO2/95% air. The test compound dissolved in DMSO was diluted 200 times using RPM1-1640 culture medium and adjusted so as to form a compound concentration of 500 nM. The prepared test compound 10 μL (final concentration 100 nM) was added to the cells, and LPS (Sigma) and mouse interferon γ (Wako Pure Chemicals) were added in amounts of 10 μL so as to form final concentrations of 1.25 ng/mL and 0.2 ng/mL respectively. The cells were further cultured overnight, and then the nitrite ion (stable NO metabolite) concentration in the culture supernatant was measured as an index of NO production. The nitrite ion concentration was assayed by adding 10 μL of 20 μg/mL 2,3-diamino naphthalene (DAN) dissolved in 0.2N HCl to 20 μL culture supernatant, incubating at room temperature for ten minutes, and then adding 10 μL of 0.5N NaOH, and measuring the fluorescent value at 460 nm (excitation wavelength 355 nm) using an EnVision plate reader (Perkin Elmer). The NO production inhibition rate (%) was calculated using the value without the addition of stimulating agent as control of 100% inhibition, and the value without the addition of the compound as control of 0% inhibition.

The test system of experiment [1] is oxaliplatin induced-neuropathic pain model mouse. Nature of the experiment: Analgesic action on oxaliplatin induced-neuropathic pain model mouse. The following applies: C57BL/6N mice, 1 week after oxaliplatin 0.3 mg/kg i.p., mean ± standard error. The experiment is classed as in vivo. Here is the method:
Oxaliplatin was diluted with saline by the predetermined concentration, and administered intraperitoneally to mice (C57BL/6N, male, 8 weeks old) at 0.3 mg/kg. The test compound was dissolved in 10% captisol or 10% captisol containing 0.1% N-methyl-2-pyrrolidone. The compound was administered intravenously (0.1-10 mg/kg body weight) to the mice immediately before intraperitoneal administration of various anticancer drugs. The pain threshold was measured 1 week after oxaliplatin administration. The pain threshold was evaluated as a weighted value (gram) showing pseudo-escape reaction, when the footpad of the right hind limb was pressed using balance type pressurizing device (Ugo Basile). The values in the table show the mean±standard errors of the weighted values.

In the case of `CCOC(=O)C1=CC2(CC[C@H]1S(=O)(=O)[C@H]1CCc3cc(F)cc(Cl)c31)O[C@H](CO)[C@@H](CO)O2` [Compound 14, Ethyl (2R,3R,8R)-8-(((1S)-7-chloro-5-fluoro-2,3-dihydro-1H-inden-1-yl)sulfonyl)-2,3-bis(hydroxymethyl)-1,4-dioxaspiro[4.5]dec-6-ene-7-carboxylate], the “NO production inhibitory effect at 100 nM (% inhibition)” value on TLR4 came out at 107 % inhibition. The results for the “Pain threshold (weighted value showing pseudo-escape reaction)” value in experiment [1] (0.1 mg/kg i.v.), in experiment [1] (0.3 mg/kg i.v.) and in experiment [1] (1 mg/kg i.v.) were 208.0 ± 33.8 gram, 215.0 ± 21.6 gram and 310.0 ± 33.8 gram, respectively.

`CCOC(=O)C1=CC2(CC[C@H]1S(=O)(=O)[C@H]1CCc3cccc(Cl)c31)O[C@H](COC)[C@@H](COC)O2` [Compound 21, Ethyl (2R,3R,8R)-8-(((1S)-7-chloro-2,3-dihydro-1H-inden-1-yl)sulfonyl)-2,3-bis(methoxymethyl)-1,4-dioxaspiro[4.5]dec-6-ene-7-carboxylate]: the “NO production inhibitory effect at 100 nM (% inhibition)” value on TLR4 worked out at 112 % inhibition. Besides, the results for the “Pain threshold (weighted value showing pseudo-escape reaction)” value in experiment [1] (0.1 mg/kg i.v.), in experiment [1] (0.3 mg/kg i.v.) and in experiment [1] (1 mg/kg i.v.) were 160.0 ± 29.7 gram, 265.0 ± 58.5 gram and 285.0 ± 19.3 gram, respectively.

(Values after patent US9828357B2, “Cyclic compounds” (Takeda Pharmaceutical Company Limited, priority 2015, dated 2017).)
